# From patent US20220031800A1, “PEPTIDES FOR TREATING NON-EXUDATIVE MACULAR DEGENERATION AND OTHER DISORDERS OF THE EYE” (Allegro Pharmaceuticals, LLC, priority 2019, published 2022)
# Square brackets hold non-standard residues; d marks the D form. Peptide text beside a SMILES is read from it. Cya = N[C@@H](CS(=O)(=O)O)C(=O)O
# Test system: study eye of subjects with intermediate non-exudative AMD
# Assay: SD-OCT Analysis 2 (thickness, volume, map coverage of retinal layers)
# Assay type: in vivo, human
# Conditions: change from baseline at Week 32
# Procedure: Numerous study assessments were conducted at various time points throughout the study. Included among these study assessments were; refractive eye examinations, determinations of BCVA AND low-luminance BCVA, Lanthony D-15 color vision test, measurement of intraocular pressure (IOP), Indirect ophthalmoscopy/dilated fundus examinations and spectral-domain optical coherence tomography (SD-OCT). Also, blood and saliva samples were obtained from each subject for genetic analysis. The above-listed study assessments were performed at the time points indicated in Table 1, below: The OCT scans were analyzed by two (2) unrelated experts. In Analysis #2, the OCT images of study eyes were analyzed to determine mean thickness and mean volume of numerous retinal subfields and layer segments at baseline and at Week 12 for sham eyes and at baseline and at Week 32 for risuteganib eyes, to document any significant differences between groups of eyes based on baseline measurements or changes from baseline in those measurements. In addition to the quantitative analysis of OCT images, OCT Analysis #2 included qualitative assessment of the OCT images to identify GA, pseudodrusen, and disruption of the ELM and EZ layers. FIGS. 9A, 9B and 9C illustrate the level of varying pathology within the ELM based on quantitative mapping that were also assessed, with FIG. 9A (left) showing no ELM disruption, FIG. 9B (center) showing segmental disruption, and FIG. 9C showing diffuse disruption.
# [1] = risuteganib nonresponder eyes, n = 12
compound,measurement,setting,value
"C[C@@H](O)[C@H](NC(=O)[C@H](CS(=O)(=O)O)NC(=O)CNC(=O)[C@H](CCCNC(=N)N)NC(=O)CN)C(=O)N1CCC[C@H]1C(=O)O [risuteganib, Glycyl-L-arginylglycyl-3-sulfo-L-alanyl-L-threonyl-L-proline] (H-GRG[Cya]TP-OH)","Change in mean thickness, ONL-RPE foveal center",Risuteganib Responder eyes,0.650 μm
same,"Change in mean thickness, ONL-RPE mid subfield",Risuteganib Responder eyes,−6.561 μm
same,"Change in mean thickness, RPE-BM central subfield",Risuteganib Responder eyes,−8.238 μm
same,"Change in mean thickness, RPE-BM foveal center",Risuteganib Responder eyes,−12.512 μm
same,"Change in mean thickness, RPE-BM mid subfield",Risuteganib Responder eyes,−5.287 μm
same,"Change in mean thickness, Total retinal central subfield",Risuteganib Responder eyes,−0.691 μm
same,"Change in mean thickness, Total retinal foveal center",Risuteganib Responder eyes,0.804 μm
same,"Change in mean thickness, Total retinal mid subfield",Risuteganib Responder eyes,−1.049 μm
same,"Change in volume, ELM-EZ central subfield",Risuteganib Responder eyes,−0.002 mm^3
same,"Change in volume, ELM-EZ mid subfield",Risuteganib Responder eyes,−0.003 mm^3
same,"Change in volume, ELM-RPE",Risuteganib Responder eyes,0.086 mm^3
same,"Change in volume, ELM-RPE central subfield",Risuteganib Responder eyes,−0.002 mm^3
same,"Change in volume, ELM-RPE mid subfield",Risuteganib Responder eyes,−0.007 mm^3
same,"Change in volume, EZ-RPE",Risuteganib Responder eyes,−0.059 mm^3
same,"Change in volume, EZ-RPE central subfield",Risuteganib Responder eyes,−0.001 mm^3
same,"Change in volume, EZ-RPE mid subfield",Risuteganib Responder eyes,−0.004 mm^3
same,"Change in volume, ONL-EZ central subfield",Risuteganib Responder eyes,−0.004 mm^3
same,"Change in volume, ONL-EZ mid subfield",Risuteganib Responder eyes,−0.017 mm^3
same,"Change in volume, ONL-RPE",Risuteganib Responder eyes,0.009 mm^3
same,"Change in volume, ONL-RPE central subfield",Risuteganib Responder eyes,−0.005 mm^3
same,"Change in volume, ONL-RPE mid subfield",Risuteganib Responder eyes,−0.021 mm^3
same,"Change in volume, RPE-BM",Risuteganib Responder eyes,−0.049 mm^3
same,"Change in volume, RPE-BM central subfield",Risuteganib Responder eyes,−0.007 mm^3
same,"Change in volume, RPE-BM mid subfield",Risuteganib Responder eyes,−0.017 mm^3
same,"Change in volume, Total retinal",Risuteganib Responder eyes,−0.188 mm^3
same,"Change in volume, Total retinal central subfield",Risuteganib Responder eyes,0.000 mm^3
same,"Change in volume, Total retinal mid subfield",Risuteganib Responder eyes,−0.004 mm^3
same,"Map coverage, 0 μm EZ",Risuteganib Responder eyes,3.679%
same,"Map coverage, 0 μm RPE-BM",Risuteganib Responder eyes,1.099%
same,"Map coverage, 10 μm EZ",Risuteganib Responder eyes,3.699%
same,"Map coverage, 20 μm EZ",Risuteganib Responder eyes,3.574%
same,"Map coverage, 50 μm RPE-BM",Risuteganib Responder eyes,−3.49%
same,"Map coverage, 150 μm RPE-BM",Risuteganib Responder eyes,3.335%
same,"Map coverage, 250 μm RPE-BM",Risuteganib Responder eyes,−0.011%
same,"Change in mean thickness, ELM-EZ central subfield","risuteganib arm, n = 24",−1.827 μm
same,"Change in mean thickness, ELM-EZ mid subfield","risuteganib arm, n = 24",−0.106 μm
same,"Change in mean thickness, ELM-RPE central subfield","risuteganib arm, n = 24",−2.912 μm
same,"Change in mean thickness, ELM-RPE foveal center","risuteganib arm, n = 24",−6.094 μm
same,"Change in mean thickness, ELM-RPE mid subfield","risuteganib arm, n = 24",−1.593 μm
same,"Change in mean thickness, EZ-RPE central subfield","risuteganib arm, n = 24",−1.085 μm
same,"Change in mean thickness, EZ-RPE foveal center","risuteganib arm, n = 24",−0.407 μm
same,"Change in mean thickness, EZ-RPE mid subfield","risuteganib arm, n = 24",−1.486 μm
same,"Change in mean thickness, Inner retina central subfield","risuteganib arm, n = 24",3.880 μm
same,"Change in mean thickness, Inner retina mid subfield","risuteganib arm, n = 24",3.893 μm
same,"Change in mean thickness, ONL-EZ central subfield","risuteganib arm, n = 24",−6.131 μm
same,"Change in mean thickness, ONL-EZ mid subfield","risuteganib arm, n = 24",−4.954 μm
same,"Change in mean thickness, ONL-RPE central subfield","risuteganib arm, n = 24",−7.216 μm
same,"Change in mean thickness, ONL-RPE foveal center","risuteganib arm, n = 24",−3.488 μm
same,"Change in mean thickness, ONL-RPE mid subfield","risuteganib arm, n = 24",−6.441 μm
same,"Change in mean thickness, RPE-BM central subfield","risuteganib arm, n = 24",−4.178 μm
same,"Change in mean thickness, RPE-BM foveal center","risuteganib arm, n = 24",−8.126 μm
same,"Change in mean thickness, RPE-BM mid subfield","risuteganib arm, n = 24",−2.086 μm
same,"Change in mean thickness, Total retinal central subfield","risuteganib arm, n = 24",−3.336 μm
same,"Change in mean thickness, Total retinal foveal center","risuteganib arm, n = 24",−4.154 μm
same,"Change in mean thickness, Total retinal mid subfield","risuteganib arm, n = 24",−2.548 μm
same,"Change in volume, ELM-EZ central subfield","risuteganib arm, n = 24",−0.001 mm^3
same,"Change in volume, ELM-EZ mid subfield","risuteganib arm, n = 24",0.000 mm^3
same,"Change in volume, ELM-RPE","risuteganib arm, n = 24",0.048 mm^3
same,"Change in volume, ELM-RPE central subfield","risuteganib arm, n = 24",−0.002 mm^3
same,"Change in volume, ELM-RPE mid subfield","risuteganib arm, n = 24",−0.005 mm^3
same,"Change in volume, EZ-RPE","risuteganib arm, n = 24",−0.027 mm^3
same,"Change in volume, EZ-RPE central subfield","risuteganib arm, n = 24",−0.001 mm^3
same,"Change in volume, EZ-RPE mid subfield","risuteganib arm, n = 24",−0.005 mm^3
same,"Change in volume, ONL-EZ central subfield","risuteganib arm, n = 24",−0.005 mm^3
same,"Change in volume, ONL-EZ mid subfield","risuteganib arm, n = 24",−0.016 mm^3
same,"Change in volume, ONL-RPE","risuteganib arm, n = 24",−0.009 mm^3
same,"Change in volume, ONL-RPE central subfield","risuteganib arm, n = 24",−0.005 mm^3
same,"Change in volume, ONL-RPE mid subfield","risuteganib arm, n = 24",−0.020 mm^3
same,"Change in volume, RPE-BM","risuteganib arm, n = 24",−0.006 mm^3
same,"Change in volume, RPE-BM central subfield","risuteganib arm, n = 24",−0.003 mm^3
same,"Change in volume, RPE-BM mid subfield","risuteganib arm, n = 24",−0.007 mm^3
same,"Change in volume, Total retinal","risuteganib arm, n = 24",−0.048 mm^3
same,"Change in volume, Total retinal central subfield","risuteganib arm, n = 24",−0.002 mm^3
same,"Change in volume, Total retinal mid subfield","risuteganib arm, n = 24",−0.008 mm^3
same,"Map coverage, 0 μm EZ","risuteganib arm, n = 24",2.574%
same,"Map coverage, 0 μm RPE-BM","risuteganib arm, n = 24",1.282%
same,"Map coverage, 10 μm EZ","risuteganib arm, n = 24",2.515%
same,"Map coverage, 20 μm EZ","risuteganib arm, n = 24",2.431%
same,"Map coverage, 50 μm RPE-BM","risuteganib arm, n = 24",−2.644%
same,"Map coverage, 150 μm RPE-BM","risuteganib arm, n = 24",2.739%
same,"Map coverage, 250 μm RPE-BM","risuteganib arm, n = 24",−0.006%
same,"Change in mean thickness, ELM-EZ central subfield",[1],−1.332 μm
same,"Change in mean thickness, ELM-EZ mid subfield",[1],0.754 μm
same,"Change in mean thickness, ELM-RPE central subfield",[1],−2.722 μm
same,"Change in mean thickness, ELM-RPE foveal center",[1],−12.189 μm
same,"Change in mean thickness, ELM-RPE mid subfield",[1],−1.044 μm
same,"Change in mean thickness, EZ-RPE central subfield",[1],−1.390 μm
same,"Change in mean thickness, EZ-RPE foveal center",[1],−1.789 μm
same,"Change in mean thickness, EZ-RPE mid subfield",[1],−1.798 μm
same,"Change in mean thickness, Inner retina central subfield",[1],1.896 μm
